The source of these data is PMC7507803 (ACS Pharmacology & Translational Science, 2020).

Residues, ends and D or L forms follow the SMILES beside them. *: point of attachment. AMC = Cc1cc(=O)oc2cc(N*)ccc12; Boc = CC(C)(C)OC(=O)*

The test system of one series is prostasin. To be noted: cited from earlier work.
Series [1] has as its target Recombinant Human TMPRSS2 (Homo sapiens, UniProt O15393). Briefly: TMPRSS2 fluorogenic biochemical assay.
The conditions of series [2]: cited from earlier work.
For series [3], the system named is SARS-CoV-2-S-mediated pseudotyped particle entry. The conditions noted are these: cited from earlier work.
The subject of another series is TMPRSS2 (aa 148–492). The conditions noted are these: TMPRSS2 biochemical screen; cited from earlier work.
The test system of a further series is trypsin. To be noted: cited from earlier work.
Another series deals with SARS-CoV. To be noted: mouse, in vivo; cited from earlier work.

Sequence of Recombinant Human TMPRSS2 (O15393 106-492): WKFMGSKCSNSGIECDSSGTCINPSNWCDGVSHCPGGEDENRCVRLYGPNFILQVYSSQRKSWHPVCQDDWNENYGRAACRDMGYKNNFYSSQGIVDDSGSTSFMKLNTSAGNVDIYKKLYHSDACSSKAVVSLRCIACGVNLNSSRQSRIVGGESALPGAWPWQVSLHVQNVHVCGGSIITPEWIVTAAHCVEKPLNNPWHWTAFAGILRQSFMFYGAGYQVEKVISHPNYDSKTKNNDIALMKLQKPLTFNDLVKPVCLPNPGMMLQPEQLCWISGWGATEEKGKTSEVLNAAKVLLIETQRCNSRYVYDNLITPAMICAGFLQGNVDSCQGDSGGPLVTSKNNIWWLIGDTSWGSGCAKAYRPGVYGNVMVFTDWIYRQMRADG

As for `N=C(N)Nc1ccc(C(=O)O)cc1` [4-guanidinobenzoic acid], in the series with prostasin, the inhibition of prostasin result is recorded as “do not inhibit”.

Regarding `N=C(N)c1ccc2cc(O)ccc2c1` [6-amidino-2-naphthol], the inhibition of prostasin entry with prostasin is “do not inhibit”.

For the compound `Cc1cc(=O)oc2cc(NC(=O)[C@H](CCCNC(=N)N)NC(=O)[C@H](C)NC(=O)[C@H](CCC(N)=O)NC(=O)OC(C)(C)C)ccc12` [Boc-Gln-Ala-Arg-AMC] (Boc-Gln-Ala-Arg-{AMC}), the “released AMC” value in series [1] (60 min, peptide 10 μM, TMPRSS2 1 μM, Tris-HCl pH8) came out at 27%.

For `N=C(N)Nc1ccc(C(=O)Oc2ccc(CC(=O)O)cc2)cc1` [FOY-251, 4-(4-guanidinobenzoyloxy)phenylacetic acid], the mean terminal half-life in series [2] is 60 min.

As to `Nc1c(Br)cc(Br)cc1CN[C@H]1CC[C@H](O)CC1` [ambroxol], in series [1] (40 μM, data not shown), the TMPRSS2 inhibition entry is “did not show any TMPRSS2 inhibition”.

On to `CN(Cc1cc(Br)cc(Br)c1N)C1CCCCC1` [bromhexine], for which, in series [3], the “inhibition of pseudotyped particle entry” value is reported as “lack of inhibiting SARS-CoV-2-S-mediated pseudotyped particle entry”. Also, in the series on TMPRSS2 (aa 148–492), the half-inhibitory concentration (IC50) was 750 nM. The “inhibition of TMPRSS2” value in series [1] (dose–response, listed as Bromhexine hydrochloride) was “no inhibition”.

Take `CN(C)C(=O)COC(=O)Cc1ccc(OC(=O)c2ccc(NC(=N)N)cc2)cc1` [camostat]: in the series on trypsin, the concentration for half-maximal inhibition (IC50) is around 50 nM. Besides, the SARS-CoV pathogenesis result in the series with SARS-CoV was “mitigated SARS-CoV pathogenesis”. Moreover, in series [2] (plasma), the “t1/2 of hydrolysis in plasma” value was below 1 min.

On to `N=C(N)c1ccc2cc(OC(=O)c3ccc(N=C(N)N)cc3)ccc2c1` [nafamostat], for which, in series [2] (IV infusion), the “plasma half-life (t1/2)” value is “about 23 min”.
